These results are taken from article PMC10895676, “Antiviral Activity of Lipophilic Nucleoside Tetraphosphate Compounds” (Journal of Medicinal Chemistry, 2024).

The target in data set [1] is T1, human DNA polymerase β (Homo sapiens, UniProt P06746).
T1 construct: purchased Chimerx
The experiment in a line: Primer extension assay using human DNA polymerase β. It counts as biochemical. The settings on record: 60 min, 2 U, 37 °C. The text has this: Encouraged by the previously obtained results that γ-phosphate-modified-d4TDPs 3, γ-monoalkylated d4TTP derivatives as well as d4TDP were accepted as substrates by HIV-RT,[49],[50],[55],[59]−[61] δ-dialkylated d4T tetraphosphate analogues 4,5, δ-monoalkylated d4T tetraphosphate analogues 20 and 24 and d4T4P were investigated in primer extension assays in the presence of HIV-RT or the three different human DNA polymerases α, β and γ. D4TTP (for the compounds 4–9) and the natural thymidine triphosphate (TTP) were used as reference compounds.
(§1) Figure 6 Primer extension assay using HIV-RT (A), human polymerases α (B), β (C), and γ (D). (Figure 6A). Primer extension assay using HIV-RT (30 min, 6U). Lane 1: (+) dATP, dCTP, dGTP, and TTP with HIV-RT. Lane 2: (−) dATP, dCTP, dGTP, and TTP without HIV-RT. Lane 3: TTP. […] Lane 5: δ-(C4; C18)-d4T4P 4d. […] Lane 7: δ-(C18)-d4T4P 20. Lane 8: δ-C-(C18)-d4T4P 24. Lane 9: d4T4P. Lane 10: d4TTP. Lane 11: d4TDP. HIV-RT assay reaction conditions: 50 mM Tris–HCl (pH 8.6), 10 mM MgCl2, 40 mM KCl, 250 μM dNTPs, HIV-RT (6 U), 0.20 μM DNA hybrid, primer-template-hybrid 0.32 mM in a reaction volume of 10 μL, incubated at 37 °C for 0.5 h, 80 °C for 7 min. Primer extension assays: 50 mA, 45 w for 4 h. (Figure 6B). For human DNA polymerase α assay (60 min, 2 U): Lane 1: (+) dATP, dCTP, dGTP, and TTP with human polymerase α. Lane 2: (−) dATP, dCTP, dGTP, and TTP without human polymerase α. Lane 3: TTP. […] Lane 5: δ-(C4; C18)-d4T4P 4d. […] Lane 7: δ-(C18)-d4T4P 20. Lane 8: δ-C-(C18)-d4T4P 24. Lane 9: d4T4P. Lane 10: d4TTP. Human DNA polymerase α assay conditions: 60 mM Tris–HCl (pH 8), 5 mM Mg(OAc)2, 100 mM KCl, 1.0 mM dithiothreitol, 0.1 mM spermine, 0.01% (w/v) bovine serum albumin, 250 μM dNTPs, 2 U human polymerase α, 0.20 μM DNA hybrid, and primer-template-hybrid 0.32 mM in a reaction volume of 10 μL, incubated at 37 °C for 1 h, 80 °C for 7 min. Primer extension assays: 50 mA, 45 w for 3 h. (Figure 6C). For human DNA polymerase β assay (60 min, 2 U): Lane 1: (+) dATP, dCTP, dGTP, and TTP with human polymerase β. Lane 2: (−) dATP, dCTP, dGTP, and TTP without human polymerase β. Lane 3: TTP. […] Lane 5: δ-(C4; C18)-d4T4P 4d. […] Lane 7: δ-(C18)-d4T4P 20. Lane 8: δ-C-(C18)-d4T4P 24. Lane 9: d4T4P. Lane 10: d4TTP. Human DNA polymerase β assay conditions: 50 mM Tris–HCl (pH 8.7), 10 mM Mg(OAc)2, 100 mM KCl, 1.0 mM dithiothreitol, 0.1 mM spermine, 0.01% (w/v) bovine serum albumin, 15% glycerol, 250 μM dNTPs, 2 U human DNA polymerase β, 0.20 μM DNA hybrid, and primer-template-hybrid 0.32 mM in a reaction volume of 10 μL, incubated at 37 °C for 1 h, 80 °C for 7 min. Primer extension assays: 50 mA, 45 w for 3 h. (Figure 6D), For the human DNA polymerase γ assay (120 min, 2 U): Lane 1: (+) dATP, dCTP, dGTP, and TTP with human polymerase γ. Lane 2: (−) dATP, dCTP, dGTP, and TTP without human polymerase γ. Lane 3: TTP. […] Lane 5: δ-(C4; C18)-d4T4P 4d. […] Lane 7: δ-(C18)-d4T4P 20. Lane 8: δ-C-(C18)-d4T4P 24. Lane 9: d4T4P. Lane 10: d4TTP. Human polymerase γ assay conditions: 60 mM Tris–HCl (pH 8), 5 mM Mg(OAc)2, 1.0 mM dithiothreitol, 0.1 mM spermine, 0.01% (w/v) bovine serum albumin, 250 μM dNTPs, 2 U human polymerase γ, 0.5 μM MnCl2, 0.20 μM DNA hybrid, primer-template-hybrid 0.32 mM in a reaction volume of 10 μL, incubated at 37 °C for 2 h, 80 °C for 7 min. Primer extension assays: 50 mA, 45 w for 3 h.
HIV-RT and human polymerases α, β, and γ were bought from Roboklon and Chimerx. The fluorescent-labeled primer and template were obtained from Metabion. […]

Data set [2] addresses T2, HIV-RT (Human immunodeficiency virus type 1 group M subtype B, UniProt P03366).
T2 construct: HIV-RT HIV reverse transcriptase; purchased Roboklon
The experiment in a line: Primer extension assay using HIV-RT. It counts as biochemical. Particulars: 30 min, 6 U HIV-RT, 37 °C. As to the method:
as §1
HIV-RT and human polymerases α, β, and γ were bought from Roboklon and Chimerx. The fluorescent-labeled primer and template were obtained from Metabion.
For the annealing of the primer/template mixture, 40 μL of the 10 μM primer and 60 μL of the 10 μM template were incubated for 5 min at 95 °C. Then, for optimal annealing, the temperature was reduced over a period of 2 h to 20 °C and incubated again for 20 min at 20 °C.
For the primer extension, the reaction mixture was incubated for 30 min for the HIV-RT, 60 min for the human DNA polymerase α, and 120 min for the human DNA polymerases β and γ at 37 °C, followed by 7 min at 80 °C.

The nature of data set [3]: Cytotoxicity, inhibition of CEM/TK– cell proliferation. It counts as cell-based. The settings on record: human, CEM/TK– cells (CD4+ T-cells), read-out: toxicity CC50.
Data set [4] can be described thus: Cytotoxicity, inhibition of CEM cell proliferation. Format: cell-based. Particulars: human, CEM cells (CD4+ T-cells), read-out: toxicity CC50.
The nature of data set [5]: Chemical hydrolysis in aqueous buffers (PBS pH 7.3 / 8.0, citrate buffer pH 2.0), RP18-HPLC. It counts as physicochemical. Particulars: phosphate buffered saline; 25 mM PBS, pH 7.3, 37 °C; read-out: PBS pH 7.3 t1/2 (converted). As for the experimental part: All metabolite mixtures were analyzed and quantified by means of analytical RP18-HPLC (UV detection).
The solution was incubated at 37 °C in a thermomixer. […] for each extraction and stored at −30 °C. When testing, samples were warmed up to room temperature, and 25 or 20 μL of the liquid was taken and injected into the analytical RP-18-HPLC instrument. Further aliquots were taken for monitoring the kinetic hydrolysis.
5.88 g of citric acid and 3.58 g of NaCl were dissolved in 82 mL of hydrochloric acid (0.1 mol/L). Then, sodium hydroxide was added to adjust the pH to 2.0.

For data set [6], the system named is HIV-1 (HE). The experiment in a line: Anti-HIV replication assay, HIV-1 (HE) in wild-type CEM/0 cells. Format: cell-based. Particulars: Human immunodeficiency virus 1, CCRF-CEM, read-out: HIV-1 (HE) EC50. As to the method:
Inhibition of HIV-1(HE)- and HIV-2(ROD)-induced cytopathogenicity in wild-type CEM/0 CEM CD4^+ T-cells and thymidine kinase-deficient CEM/TK^– cell cultures was measured in microtiter 96-well plates containing ∼3 × 10^5 CEM cells/mL infected with 100 CCID50 of HIV per milliliter and containing appropriate dilutions of the test compounds. After 4–5 days of incubation at 37 °C in a CO2-controlled humidified atmosphere, virus-induced cellular effects and syncytia cell formation were examined microscopically. The EC50 (50% effective concentration) was defined as the compound concentration required to inhibit HIV-induced giant cell formation by 50%.

Data set [7] has as its system HIV-2 (ROD). The experiment in a line: Anti-HIV replication assay, HIV-2 (ROD) in wild-type CEM/0 cells. It counts as cell-based. The settings on record: Human immunodeficiency virus 2, CCRF-CEM, read-out: HIV-2 (ROD) EC50. As to the method: (§2) Inhibition of HIV-1(HE)- and HIV-2(ROD)-induced cytopathogenicity in wild-type CEM/0 CEM CD4^+ T-cells and thymidine kinase-deficient CEM/TK^– cell cultures was measured in microtiter 96-well plates containing ∼3 × 10^5 CEM cells/mL infected with 100 CCID50 of HIV per milliliter and containing appropriate dilutions of the test compounds. After 4–5 days of incubation at 37 °C in a CO2-controlled humidified atmosphere, virus-induced cellular effects and syncytia cell formation were examined microscopically.

Data set [8] deals with HIV-2 (ROD). The experiment in a line: Anti-HIV replication assay, HIV-2 (ROD) in thymidine kinase-deficient CEM/TK– cells. It counts as cell-based. Particulars: Human immunodeficiency virus 2, CEM-TK(-), read-out: CEM/TK– HIV-2 (ROD) EC50. As to the method:
as §2

Entries after “also recorded” stand apart in the source; their conditions may differ. A value given as a limit tells only on which side of the number the result lay.

For `Cc1cn([C@H]2C=C[C@@H](COP(=O)(O)OP(=O)(O)OP(=O)(O)O)O2)c(=O)[nH]c1=O` [d4TTP, d4T triphosphate, reference compound], the “substrate for human DNA polymerase β (primer extension)” value in data set [1] is on record as “substrate”. For the same molecule, the “substrate for HIV-RT (primer extension)” value in data set [2] is recorded as “incorporation of d4TMP was detected; also recorded: good substrates”.
For the molecule `CCCCOP(=O)(OCCCC)OP(=O)(O)OP(=O)(O)OP(=O)(O)OC[C@@H]1C=C[C@H](n2cc(C)c(=O)[nH]c2=O)O1` [4a, δ-(Alkyl-C4; alkyl-C4)-d4T4P], the “substrate for human DNA polymerase β (primer extension)” value in data set [1] is “substrate”. Further, the cytotoxic concentration (CC50) in data set [3] and in data set [4] was above 100 µM throughout. Moreover, the half-life at 1.9 mM in data set [5] was 167 h. Moreover, the EC50 was 0.22 ± 0.13 µM in data set [6], 0.16 ± 0.04 µM in data set [7] and 14.8 ± 2.8 µM in data set [8].
Turning to `Cc1cn(C2C=CC(COP(=O)(O)OP(=O)(O)O)O2)c(=O)[nH]c1=O` (stereo not shown) [d4TDP, reference compound], the “substrate for HIV-RT (primer extension)” value in data set [2] is recorded as “good substrates”.
